# ChEMBL document CHEMBL1159150, “Synthesis and anticonvulsant properties of BW A78U structurally-related compounds” (1995)
# The source made the active and inactive calls. The rule behind the calls is not given here.
# Experiments:
# Rattus norvegicus [1] = assay: Percent of rats protected from tonic seizure by ip administration at a dose of 10 mg/kg for anticonvulsant activity; format: functional; settings: route intraperitoneal
# Rattus norvegicus [2] = assay: Percent of rats protected from tonic seizure by ip administration at a dose of 40 mg/kg for anticonvulsant activity; format: functional; settings: route intraperitoneal
# Rattus norvegicus [3] = assay: Anticonvulsant activity for tonic seizure by ip administration at a dose of 10 mg/kg; format: functional; settings: route intraperitoneal, read-out: ID50 (the source's name)
# Rattus norvegicus [4] = assay: Anticonvulsant activity for tonic seizure by ip administration at a dose of 10 mg/kg; Inactive; format: functional, organism-based; design: dose 10 mg/kg
SMILES,Protection (Rattus norvegicus [1]),Protection (Rattus norvegicus [2]),ED50 (Rattus norvegicus [3]),ID50 (Rattus norvegicus [4])
NC(=O)c1cc(Cc2ccccc2)ccn1,50%,100%,,
CNC(=O)c1cn(Cc2ccccc2)cn1,20%,90%,,
Cc1nc(CCc2ccccc2)c(C(N)=O)nc1C,0%,30%,,
CNc1nccn2c(Cc3ccccc3)nnc12,65%,100%,,
CNc1ncn(Cc2ccccc2F)c2ncnc1-2,50%,100%,10 mg/kg,
CNc1cc(N(Cc2ccccc2)C(C)=O)ncn1,20%,55%,,
CNc1ncnc2c1cnn2Cc1ccccc1F,0%,65%,,inactive
CNc1ncnc2c1ncn2Cc1ccccc1F [BW-A78U],100%,,4 mg/kg,
Cc1nc(C(N)=O)c(CCc2ccccc2)s1,30%,65%,,
